Measurements as given in article PMC10054552, “Phototoxic Potential of Different DNA Intercalators for Skin Cancer Therapy: In Vitro Screening” (International Journal of Molecular Sciences, 2023).
Read-outs that look alike come from different tables or passages of the source.

Experiments:
WM983b cells = assay: Phototoxicity assay in WM983b cells (irradiation 2.5 J/cm², resazurin); assay type: cell-based; settings: Homo sapiens, light or radiation study, treated 24 h
From the text: (§1) The MET1 SCC cell line (human squamous cell carcinoma) was obtained from Ximbio (London, UK), HaCaT (immortalized human keratinocytes cell line) was obtained from Addexbio (San Diego, CA, USA) and WM983b (human metastatic melanoma cell line) was obtained from Rockland (Pottstown, PA, USA). Cells were maintained in Dulbecco’s Modified Eagle Medium (DMEM) supplemented with 10% (v/v) fetal bovine serum (FBS) for MET1 and HaCaT and 5% (v/v) for WM983b cells, and Pen–Strep (penicillin 100 U/mL and streptomycin 100 µg/mL). Cells were cultivated in an incubator (Sanyo MCO-19AIC-UV) at 37 °C in a 5% CO2 humidified atmosphere.
For the phototoxicity studies, 96-well plates were seeded with MET1 cells at a density of 20,000 cells/cm², incubated overnight and treated for 24 h with MB, AO, GV, QT, CUR, EGCG, PHE, NEO and BIPY diluted in culture medium in a concentration range of 1.25 µM to 40 µM (in sextuplicate). […] Cells cultured with complete medium and cells cultured with medium supplemented with 0.2% (v/v) or 10% (v/v) of DMSO were used as negative (NC), solvent (SC) and positive control (PC), respectively. The plates were incubated for 24 h, followed by washing with PBS supplemented with calcium and magnesium. Afterwards, complete culture medium without phenol red was added, and the plates were irradiated from above and submitted to a dose of 2.5 J/cm² of irradiation emitted by different wavelength light sources coupled with a homemade irradiation system created in our laboratory. These light sources consisted of an equivalent 26 cm UV tubular lamp (254 nm) (Phillips TUV PLS 9W/2PHg) and a tricolor LED lamp (Led Grow Light Bulb E26/E27) with intensity peaks at 457 nm (blue light), 583 nm (yellow light) and 640 nm (red light) provided by 18, 18 and 28 LEDs, respectively, with dimensions of 3 × 3 mm^2. The irradiance values of light at 254, 457, 583 and 640 nm wavelengths were of 16.7, 55, 45 and 25 W/m^2, respectively. This experiment was performed in an incubator that was able to keep plates in a dark environment; therefore, the dark control plates were protected from any light source, as well as the others, with the exception of the irradiation that each one was submitted to. Plates were incubated for another 24 h, and finally, the resazurin assay was performed as previously described in Section 3.3. For the phototoxicity study using WM983b cells, plates were prepared at a cell density of 40,000 cells/cm², and cells were treated with MB and AO only.

HaCaT cells = assay: Cytotoxicity (resazurin cell viability) in HaCaT cells; assay type: cell-based, human; settings: Homo sapiens, HaCaT cells, 1.25-320 µM
From the text: as §1
First, 96-well plates were seeded with HaCaT and MET1 cells at a density of 20,000 cells/cm² and incubated for 24 h. After that period, the culture medium was replaced by culture medium containing different compounds: MB, AO, GV, QT, CUR, EGCG, PHE, NEO and BIPY. The compounds were diluted in culture medium using a range of concentrations of each compound from 1.25 µM to 320 µM (in quadruplicate). The medium was aspirated from the 96-well plate and replaced by the samples diluted in medium. Cells cultured with complete medium and cells cultured with medium supplemented with 0.2% (v/v) or 10% (v/v) of DMSO were used as negative (NC), solvent (SC) and positive controls (PC), respectively. The plates were incubated for 24 and 48 h, followed by evaluation of cell viability using a colorimetric assay. Cells containing samples were washed with PBS supplemented with calcium and magnesium; then, resazurin solution diluted in DMEM at 0.02 mg/mL was added. The medium containing resazurin was also dispensed in wells without cells, which were used as references. After 3 h of incubation, the absorbance was measured in a microplate reader (ELX800UV, Biotek Instruments) at wavelengths of 570 nm and 600 nm. The corrected absorbance was proportional to cell viability. Propagation of uncertainties was used to calculate the combined standard uncertainty. For the cytotoxicity study using WM983b cells, plates were seeded at a density of 40,000 cells/cm², and cells were treated only with MB and AO.

MET1 cells = assay: Phototoxicity assay in MET1 cells (irradiation 2.5 J/cm², resazurin); assay type: cell-based, human; settings: Homo sapiens, MET-1, light or radiation study, MET1 cells, treated 24 h
Procedure: (§2) The […] SCC cell line (human squamous cell carcinoma) was obtained from Ximbio (London, UK), HaCaT (immortalized human keratinocytes cell line) was obtained from Addexbio (San Diego, CA, USA) and WM983b (human metastatic melanoma cell line) was obtained from Rockland (Pottstown, PA, USA). […] Cells were cultivated in an incubator (Sanyo MCO-19AIC-UV) at 37 °C in a 5% CO2 humidified atmosphere. […] The plates were incubated for 24 h, followed by washing with PBS supplemented with calcium and magnesium. Afterwards, complete culture medium without phenol red was added, and the plates were irradiated from above and submitted to a dose of 2.5 J/cm2 of irradiation emitted by different wavelength light sources coupled with a homemade irradiation system created in our laboratory. […] This experiment was performed in an incubator that was able to keep plates in a dark environment; therefore, the dark control plates were protected from any light source, as well as the others, with the exception of the irradiation that each one was submitted to. Plates were incubated for another 24 h, and finally, the resazurin assay was performed as previously described in Section 3.3. For the phototoxicity study using WM983b cells, plates were prepared at a cell density of 40,000 cells/cm2, and cells were treated with MB and AO only.

[1] = as above; assay type: cell-based, human; settings: human, MET1 squamous cell carcinoma cells; MET1 cells, 457 nm, all investigated concentrations (1.25-40 µM); read-out: cell viability under 457 nm light
Procedure: as §2

CN(C)c1ccc2cc3ccc(N(C)C)cc3nc2c1 [Acridine orange, acridine orange]
IC50 (WM983b cells; 457 nm light, 2.5 J/cm², read-out: IC50 irradiated samples (457 nm)): 1.1 µM | IC50 (WM983b cells; without irradiation, read-out: IC50 non-irradiated samples): 17.5 µM | IC50 (HaCaT cells; 24 h exposure, read-out: IC50 HaCaT Cells 24 h): 10.5 µM | IC50 (HaCaT cells; 48 h exposure, read-out: IC50 HaCaT Cells 48 h): 6.5 µM | IC50 (MET1 cells; 254 nm light, 2.5 J/cm², read-out: IC50 254 nm): 7.1 µM | IC50 (MET1 cells; 457 nm light, 2.5 J/cm², read-out: IC50 457 nm): 0.4 µM | IC50 (MET1 cells; 583 nm light, 2.5 J/cm², read-out: IC50 583 nm): 4.1 µM | IC50 (MET1 cells; 640 nm light, 2.5 J/cm², read-out: IC50 640 nm): 6.6 µM | IC50 (MET1 cells; dark control (no irradiation), read-out: IC50 Dark): 11.5 µM | viability at 24 h [1]: < 10%
